Assay results reported in patent US12643867B2, “Compositions and uses thereof” (University of Virginia Patent Foundation, priority 2017, dated 2026).

How the values were obtained:
[1] = target: T1, DGKZ (Diacylglycerol kinase zeta) (Homo sapiens, UniProt Q13574); test: SILAC LC-MS ATP acyl phosphate probe competition, recombinant DGK-HEK293T lysates; type: binding; conditions: ATP 1 mM, Ketanserin, Ritanserin 100 μM, RF001 1 mM; for SILAC ratio, DGKZ C1 probe-modified peptide: site C1 (K323); for SILAC ratio, DGKZ DAGKa probe-modified peptide: site DAGKa (K662); for SILAC ratio, DGKZ DAGKc probe-modified peptide: site DAGKc (K500)
T1 construct: expressed in transfected cells; host or cells: SILAC HEK293T
From the text: (§1) Recombinant DGK proteins were produced by transient transfection of HEK293T cells with recombinant DNA. pDONR223-DGKK was a gift from William Hahn & David Root (Addgene plasmid #23487). pCSF107mT-GATEWAY-3′-FLAG was a gift from Todd Stukenberg (Addgene plasmid #67619). pCSF107mT-DGKK-FLAG construct was generated by recombination of the Addgene plasmids using the Gateway cloning system (Invitrogen). All other vectors were gifted to Dr. Kevin Lynch (University of Virginia, School of Medicine) by Dr. Kaoru Goto (Yamagata University, School of Medicine) and Dr. Fumio Sakane (Chiba University) and were kindly shared with us: pcDNA3-FLAG-DGKA (rat), pCMV-Tag2B-FLAG-DGKQ (human), pcDNA3-DGKE-3×Flag (human), and pCMV-SPORT6-HA-DGKZ (human). HEK293T cells were plated at a concentration of 400,000 cells in complete DMEM and grown to 50-60% confluency. A polyethyleneimine (PEI) stock solution was prepared (1 mg/mL, pH 7.4) and filter sterilized. Serum-free DMEM (600 μL) was mixed gently with 2.6 μg DNA and 20 μL of sterile PEI (1 mg/mL, pH 7.4) in a sterile microfuge tube. Mixtures were incubated for 30 min at 25° C. The mixture was then added drop-wise to each 10 cm^2 plate, rocked back and forth to mix, and placed back in the incubator. Cell pellets were harvested after two full days of growth, snap-frozen in liquid N2, and stored at −80° C. until use. Recombinant proteins were produced by transient transfection in SILAC HEK293T cells using the procedure described above, except that cells were plated at a concentration of 1×10^6 cells per 10 cm^2 plate and grown to ˜70% confluency prior to introducing transfection mixture.
(§2) Proteomes were diluted to 2 mg/ml in kinase buffer. The light and heavy proteomes (0.5 mg, 250 μL total reaction volume) were pre-treated with vehicle or compound, respectively (5 μL, DMSO (light) or 50× stock in DMSO (heavy)), mixed gently, and incubated at 25° C. for 30 min. […] After incubation, matched light and heavy proteomes were transferred and mixed in a 1:1 ratio in a two-dram vial containing 4:1:3 MeOH/CHCl3/H2O (2 mL MeOH, 500 AL CHCl3, 1.5 mL H2O) for extraction of proteins to remove excess probe, quickly vortexed, and centrifuged at 1,400×g for 3 min to pellet protein. Organic and aqueous layers were removed using a Pasteur pipette, and the protein pellet was transferred to a screw-top tube in 600 μL MeOH. A second extraction was performed by adding CHCl3 (150 μL) and H2O (600 μL) to each sample, vortexed, and centrifuged at 1,400×g for 3 min to pellet protein. Organic and aqueous layers were removed by pipetting. MeOH added to pellet (600 μL) and pellets were re-suspended by sonication (3×1 sec pulse, 20% amplitude) for a final extraction. Samples were then centrifuged at 17,000×g for 5 min to pellet protein and MeOH was removed by pipetting. The pellets were re-suspended in 10 M urea/25 mM ammonium bicarbonate ([…]), brought to a final volume of 1 mL with 25 mM ammonium bicarbonate, reduced with 10 mM DTT for 15 min at 65° C. allowed to cool, and then alkylated with 40 mM iodoacetamide for 30 min at 25° C. in the dark. To desalt the samples, each was transferred to a two-dram glass vial, and to the vial 4:1:2 MeOH/CHCl3/H2O (2 mL MeOH, 500 AL CHCl3, 1 mL H2O) was added. The vials were vortexed quickly, spun at 1.400×g for 3 min to pellet protein, and aqueous and organic layers were removed using a Pasteur pipette. The resulting protein pellet was transferred to a screw-top tube in 600 μL MeOH, and then CHCl3 (150 μL) and HO (600 μL) were added to extract protein a second time. The samples were vortexed quickly, centrifuged at 1,400×g to pellet protein, and the aqueous and organic layers were removed by pipetting. Resulting protein pellet was suspended in MeOH (600 μL) via sonication (3×1 sec pulse, 20% amplitude), centrifuged at 17,000×g for 5 min to pellet protein, and MeOH removed by pipetting. […]

[2] = target: T2, DGKQ (Diacylglycerol kinase theta) (Homo sapiens, UniProt P52824); test: as above; type: binding; conditions: ATP 1 mM, Ketanserin, Ritanserin 100 μM, RF001 1 mM; for SILAC ratio, DGKQ C1 probe-modified peptide: site C1 (K202); for SILAC ratio, DGKQ DAGKa probe-modified peptide: site DAGKa (K768); for SILAC ratio, DGKQ DAGKc probe-modified peptide: site DAGKc (K596)
T2 construct: expressed in transfected cells; host or cells: SILAC HEK293T
T2 sequence (P52824 1-942): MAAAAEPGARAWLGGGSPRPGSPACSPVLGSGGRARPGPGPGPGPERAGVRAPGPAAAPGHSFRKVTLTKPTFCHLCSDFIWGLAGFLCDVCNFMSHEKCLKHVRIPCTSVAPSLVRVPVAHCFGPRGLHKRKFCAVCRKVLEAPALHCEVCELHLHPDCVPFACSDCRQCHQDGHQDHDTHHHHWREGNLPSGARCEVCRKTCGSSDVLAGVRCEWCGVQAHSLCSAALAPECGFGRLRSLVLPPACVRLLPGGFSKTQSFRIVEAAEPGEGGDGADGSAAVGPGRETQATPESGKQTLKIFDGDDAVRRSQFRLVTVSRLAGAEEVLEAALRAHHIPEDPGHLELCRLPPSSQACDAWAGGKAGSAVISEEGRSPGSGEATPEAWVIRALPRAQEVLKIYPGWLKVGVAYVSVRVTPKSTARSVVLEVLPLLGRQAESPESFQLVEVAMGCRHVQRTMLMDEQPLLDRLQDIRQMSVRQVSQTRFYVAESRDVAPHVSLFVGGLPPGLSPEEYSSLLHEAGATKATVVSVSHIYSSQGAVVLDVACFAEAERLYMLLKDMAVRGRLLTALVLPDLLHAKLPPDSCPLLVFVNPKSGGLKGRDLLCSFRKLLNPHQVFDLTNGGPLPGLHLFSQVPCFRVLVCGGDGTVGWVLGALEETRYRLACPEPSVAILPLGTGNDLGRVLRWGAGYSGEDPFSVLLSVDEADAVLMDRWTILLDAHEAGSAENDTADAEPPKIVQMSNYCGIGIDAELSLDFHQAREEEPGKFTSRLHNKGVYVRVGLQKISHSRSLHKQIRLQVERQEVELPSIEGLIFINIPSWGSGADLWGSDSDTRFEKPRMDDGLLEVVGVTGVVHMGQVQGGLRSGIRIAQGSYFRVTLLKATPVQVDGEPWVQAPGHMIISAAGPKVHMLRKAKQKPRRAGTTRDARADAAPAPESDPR
From the text: as §1, §2

T1 sequence (Q13574 whole entry): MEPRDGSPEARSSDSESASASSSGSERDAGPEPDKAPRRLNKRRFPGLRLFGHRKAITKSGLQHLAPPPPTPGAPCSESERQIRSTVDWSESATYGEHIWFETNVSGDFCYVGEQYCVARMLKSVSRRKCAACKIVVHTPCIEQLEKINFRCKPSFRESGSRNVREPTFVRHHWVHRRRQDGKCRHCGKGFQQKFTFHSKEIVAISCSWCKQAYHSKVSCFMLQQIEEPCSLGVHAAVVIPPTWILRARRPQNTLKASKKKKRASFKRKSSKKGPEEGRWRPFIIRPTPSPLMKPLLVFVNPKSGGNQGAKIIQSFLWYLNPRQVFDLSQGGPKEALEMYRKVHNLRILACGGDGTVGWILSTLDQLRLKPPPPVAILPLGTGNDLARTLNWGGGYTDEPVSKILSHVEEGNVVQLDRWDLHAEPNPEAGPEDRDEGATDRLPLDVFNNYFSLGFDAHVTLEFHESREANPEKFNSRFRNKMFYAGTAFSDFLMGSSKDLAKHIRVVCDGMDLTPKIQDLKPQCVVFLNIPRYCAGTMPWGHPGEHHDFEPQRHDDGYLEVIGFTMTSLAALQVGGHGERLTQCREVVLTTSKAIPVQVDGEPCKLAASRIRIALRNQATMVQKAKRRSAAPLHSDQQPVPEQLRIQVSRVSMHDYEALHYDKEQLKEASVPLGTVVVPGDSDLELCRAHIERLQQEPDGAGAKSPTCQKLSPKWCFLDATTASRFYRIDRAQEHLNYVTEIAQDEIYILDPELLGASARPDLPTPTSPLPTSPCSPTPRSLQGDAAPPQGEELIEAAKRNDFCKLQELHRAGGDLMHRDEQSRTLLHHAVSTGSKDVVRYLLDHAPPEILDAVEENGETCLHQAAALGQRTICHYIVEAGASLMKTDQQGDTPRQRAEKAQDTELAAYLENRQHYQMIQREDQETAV

SMILES | SILAC ratio, DGKZ C1 probe-modified peptide [1] | SILAC ratio, DGKZ DAGKa probe-modified peptide [1] | SILAC ratio, DGKZ DAGKc probe-modified peptide [1] | SILAC ratio, DGKQ C1 probe-modified peptide [2] | SILAC ratio, DGKQ DAGKa probe-modified peptide [2] | SILAC ratio, DGKQ DAGKc probe-modified peptide [2]
O=C(c1ccc(F)cc1)C1CCN(CCn2c(=O)[nH]c3ccccc3c2=O)CC1 [Ketanserin] | 1.3 | 1.4 | 1.5 | 0.9 | 1.1 | 1.2
Fc1ccc(C(=C2CCNCC2)c2ccc(F)cc2)cc1 [RF001, 4-(Bis(4-fluorophenyl)methylene) piperidine] | 1.1 | 1.1 | 0.9 | 0.7 | 1.2 | 0.9
Cc1nc2sccn2c(=O)c1CCN1CCC(=C(c2ccc(F)cc2)c2ccc(F)cc2)CC1 [Ritanserin] | 1.4 | 1.8 | 1.2 | 1.3 | 1.4 | 1.1
